Results as given in patent publication USRE47302E1 (ONYX THERAPEUTICS INC., priority 2013, dated 2019).
In brackets after ≈: the same amount, converted by molar mass.

Legend:
[1] = physchem; details: pH 7, aqueous buffer
[2] = molecular target: T1, proteasome subunit β5 (beta5) (Homo sapiens, UniProt P28074); experiment: Proteasome active-site ELISA (ProCISE), beta5, MOLT-4 lysate; assay type: biochemical; details: MOLT4 lysate, human, 1 h continuous treatment, 25° C.
T1 construct: Lysate from the human acute lymphoblastic leukemia cell line, MOLT-4; endogenous in cells; host or cells: MOLT-4
Procedure, shortened: (§1)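 MOLT-4 cell lysate treated 1 h at 25 °C with compound; probe-bound subunits denatured, pulled down on streptavidin beads and detected with subunit-specific antibodies plus HRP chemiluminescence.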

[3] = molecular target: T2, immunoproteasome subunit LMP7 (Homo sapiens, UniProt P28062); experiment: Proteasome active-site ELISA (ProCISE), LMP7, MOLT-4 lysate; assay type: biochemical; details: MOLT4 lysate, 1 h continuous treatment, 25° C.
T2 construct: Lysate from the human acute lymphoblastic leukemia cell line, MOLT-4; endogenous in cells; host or cells: MOLT-4
Procedure, shortened: as §1

[4] = molecular target: human 20S immunoproteasome (i20S) (Homo sapiens, UniProt P28062); experiment: 20S proteasome assay, chymotrypsin-like activity (succinyl-Leu-Leu-Val-Tyr-AMC), i20S; assay type: biochemical; details: LLVY substrate, 1 h continuous
Source text: (§2) Assay buffer consisted of TE buffer [20 mmol/L Tris (pH 8.0), 0.5 mmol/L EDTA] with (20S) or without (cell lysate) 0.03% SDS. Reactions were initiated by enzyme or lysate addition and monitored for AMC product formation at 27jC with a plate-based spectofluorometer (Tecan).

[5] = molecular target: human constitutive 20S proteasome (c20S) (Homo sapiens, UniProt P28074); experiment: 20S proteasome assay, chymotrypsin-like activity (succinyl-Leu-Leu-Val-Tyr-AMC), c20S; assay type: biochemical; details: LLVY substrate, 1 h continuous
Source text: as §2

[6] = Solubility pH 7; details: pH 7, aqueous buffer

Row | IC50 [2] [nM] | IC50 [3] [nM] | IC50 [4] [nM] | IC50 [5] [nM] | solubility [6] [µg/mL] | Compound | solubility [1] [µg/mL]
1 | 807 | 52.6 | 53.8 | 1010 | 215 (≈ 385 µM) | COc1ccc(C[C@H](NC(=O)[C@@H](C)NC(=O)C2CCOCC2)C(=O)N[C@@H](CC2CCCC2)C(=O)[C@@]2(C)CO2)cc1 [Compound C-1028, N-((R)-1-(((S)-1-(((S)-3-cyclopentyl-1-((R)-2-methyloxiran-2-yl)-1-oxopropan-2-yl)amino)-3-(4-methoxyphenyl)-1-oxopropan-2-yl)amino)-1-oxopropan-2-yl)tetrahydro-2H-pyran-4-carboxamide] | 
2 | 2550 | 34 | 5.3 | 595 | 491 (≈ 862 µM) | COc1ccc(C[C@H](NC(=O)[C@@H](C)NC(=O)[C@H]2CC[C@H](O)CC2)C(=O)N[C@@H](CC2=CCCC2)C(=O)[C@@]2(C)CO2)cc1 [Compound C-1057, (1r,4R)-N-((R)-1-(((S)-1-(((S)-3-(cyclopent-1-en-1-yl)-1-((R)-2-methyloxiran-2-yl)-1-oxopropan-2-yl)amino)-3-(4-methoxyphenyl)-1-oxopropan-2-yl)amino)-1-oxopropan-2-yl)-4-hydroxycyclohexanecarboxamide] | 
3 | 1900 | 113 | 144 | 3540 | 19.3 (≈ 35.6 µM) | COc1ccc(C[C@H](NC(=O)[C@@H](C)NC(=O)C2CCCC2)C(=O)N[C@@H](CC2CCCC2)C(=O)[C@@]2(C)CO2)cc1 [Compound C-1021, N-((R)-1-(((S)-1-(((S)-3-cyclopentyl-1-((R)-2-methyloxiran-2-yl)-1-oxopropan-2-yl)amino)-3-(4-methoxyphenyl)-1-oxopropan-2-yl)amino)-1-oxopropan-2-yl)cyclopentanecarboxamide] | 
4 | 12500 | 440 | 232 | 7030 | 1830 (≈ 3360 µM) | COc1ccc(C[C@H](NC(=O)[C@@H](C)NC(=O)[C@H]2C[C@H](O)C2)C(=O)N[C@@H](CC2CCCC2)C(=O)[C@@]2(C)CO2)cc1 [Compound C-1041, (1r,3R)-N-((R)-1-(((S)-1-(((S)-3-cyclopentyl-1-((R)-2-methyloxiran-2-yl)-1-oxopropan-2-yl)amino)-3-(4-methoxyphenyl)-1-oxopropan-2-yl)amino)-1-oxopropan-2-yl)-3-hydroxycyclobutanecarboxamide] | 
5 | 512 | 101 | 44.5 | 515 | 706 (≈ 1270 µM) | COc1ccc(C[C@H](NC(=O)[C@@H](C)NC(=O)[C@@H]2CCCOC2)C(=O)N[C@@H](CC2CCCC2)C(=O)[C@@]2(C)CO2)cc1 [Compound C-1052, (R)-N-((R)-1-(((S)-1-(((S)-3-cyclopentyl-1-((R)-2-methyloxiran-2-yl)-1-oxopropan-2-yl)amino)-3-(4-methoxyphenyl)-1-oxopropan-2-yl)amino)-1-oxopropan-2-yl)tetrahydro-2H-pyran-3-carboxamide] | 
6 | 4540 | 270 | 98.9 | 3770 | 648 (≈ 1160 µM) | COc1ccc(C[C@H](NC(=O)[C@@H](C)NC(=O)[C@H]2CCCOC2)C(=O)N[C@@H](CC2CCCC2)C(=O)[C@@]2(C)CO2)cc1 [Compound C-1053, (S)-N-((R)-1-(((S)-1-(((S)-3-cyclopentyl-1-((R)-2-methyloxiran-2-yl)-1-oxopropan-2-yl)amino)-3-(4-methoxyphenyl)-1-oxopropan-2-yl)amino)-1-oxopropan-2-yl)tetrahydro-2H-pyran-3-carboxamide] | 
7 | 7150 | 953 | 149 | 4440 | 1300 (≈ 2460 µM) | COc1ccc(C[C@H](NC(=O)[C@@H](C)NC(=O)C2COC2)C(=O)N[C@@H](CC2=CCCC2)C(=O)[C@@]2(C)CO2)cc1 [Compound C-1055, N-((R)-1-(((S)-1-(((S)-3-(cyclopent-1-en-1-yl)-1-((R)-2-methyloxiran-2-yl)-1-oxopropan-2-yl)amino)-3-(4-methoxyphenyl)-1-oxopropan-2-yl)amino)-1-oxopropan-2-yl)oxetane-3-carboxamide] | 

Further lines, the compound ahead of its results:

Row | Compound | IC50 [2] [nM] | IC50 [3] [nM] | IC50 [4] [nM] | IC50 [5] [nM] | solubility [6] [µg/mL] | solubility [1] [µg/mL]
8 | COc1ccc(C[C@H](NC(=O)[C@H](C)NC(=O)CN2CC3CC(C2)O3)C(=O)N[C@@H](CC2CCCC2)C(=O)[C@@]2(C)CO2)cc1 [Compound C-1229, (2S)-2-((2S)-2-(2-(6-oxa-3-azabicyclo[3.1.1]heptan-3-yl)acetamido)propanamido)-N-((S)-3-cyclopentyl-1-((R)-2-methyloxiran-2-yl)-1-oxopropan-2-yl)-3-(4-methoxyphenyl)propanamide] |  |  |  |  |  | 3620 (≈ 6200 µM)
9 | C[C@H](NC(=O)CN1CCOCC1)C(=O)N[C@@H](Cc1ccc(N(C)C)cc1)C(=O)N[C@@H](Cc1ccccc1)C(=O)[C@@]1(C)CO1 [Compound C-1161, (S)-3-(4-(dimethylamino)phenyl)-N-((S)-1-((R)-2-methyloxiran-2-yl)-1-oxo-3-phenylpropan-2-yl)-2-((S)-2-(2-morpholinoacetamido)propanamido)propanamide] | 409 | 51.2 | 146 | 807 | 2110 (≈ 3560 µM) | 
10 | C[C@H](NC(=O)CN1CCOCC1)C(=O)N[C@@H](Cc1ccc(C#N)cc1)C(=O)N[C@@H](CC1CCCC1)C(=O)[C@@]1(C)CO1 [Compound C-1050, (S)-3-(4-cyanophenyl)-N-((S)-3-cyclopentyl-1-((R)-2-methyloxiran-2-yl)-1-oxopropan-2-yl)-2-((S)-2-(2-morpholinoacetamido)propanamido)propanamide] | 765 | 116 | 53.5 | 277 | 1280 (≈ 2250 µM) | 
11 | COc1ccc(C[C@H](NC(=O)[C@H](CO)NC(=O)CN2CCOCC2)C(=O)N[C@@H](Cc2ccccc2)C(=O)[C@@]2(C)CO2)cc1 [Compound C-1159, (S)-3-hydroxy-N-((S)-3-(4-methoxyphenyl)-1-(((S)-1-((R)-2-methyloxiran-2-yl)-1-oxo-3-phenylpropan-2-yl)amino)-1-oxopropan-2-yl)-2-(2-morpholinoacetamido)propanamide] | 454 | 43.1 | 43 | 473 | 1910 (≈ 3210 µM) | 
12 | C[C@H](NC(=O)CN1CCOCC1)C(=O)N[C@@H](Cc1ccc(S(C)(=O)=O)cc1)C(=O)N[C@@H](CC1CCCC1)C(=O)[C@@]1(C)CO1 [Compound C-1027, (S)-N-((S)-3-cyclopentyl-1-((R)-2-methyloxiran-2-yl)-1-oxopropan-2-yl)-3-(4-(methylsulfonyl)phenyl)-2-((S)-2-(2-morpholinoacetamido)propanamido)propanamide] | 1050 | 165 | 108 | 775 | 5750 (≈ 9260 µM) | 
13 | C[C@H](NC(=O)CN1CCOCC1)C(=O)N[C@@H](Cc1ccc2occc2c1)C(=O)N[C@@H](CC1CCCC1)C(=O)[C@@]1(C)CO1 [Compound C-1007, (S)-3-(benzofuran-5-yl)-N-((S)-3-cyclopentyl-1-((R)-2-methyloxiran-2-yl)-1-oxopropan-2-yl)-2-((S)-2-(2-morpholinoacetamido)propanamido)propanamide] | 2360 | 314 | 106 | 440 | 878 (≈ 1510 µM) | 
14 | COc1ccc(C[C@H](NC(=O)[C@H](C)NC(=O)CN2CCC(F)(F)CC2)C(=O)N[C@@H](CC2CCCC2)C(=O)[C@@]2(C)CO2)cc1 [Compound C-1046, (S)-N-((S)-3-cyclopentyl-1-((R)-2-methyloxiran-2-yl)-1-oxopropan-2-yl)-2-((S)-2-(2-(4,4-difluoropiperidin-1-yl)acetamido)propanamido)-3-(4-methoxyphenyl)propanamide] | 198 | 37.9 | 63.5 | 361 | 152 (≈ 250 µM) | 
15 | COc1ccc(C[C@H](NC(=O)[C@H](C)NC(=O)CN2CCOCC2)C(=O)N[C@@H](CC2CCCC2)C(=O)[C@@]2(C)CO2)cc1 [Compound C-1005, (S)-N-((S)-3-cyclopentyl-1-((R)-2-methyloxiran-2-yl)-1-oxopropan-2-yl)-3-(4-methoxyphenyl)-2-((S)-2-(2-morpholinoacetamido)propanamido)propanamide] | 1940 | 185 | 70.4 | 519 | 1760 (≈ 3080 µM) | 
